Results published in ChEMBL document CHEMBL3507680, “University of Dundee, Gates Library screen for HepG2 cell viability”.

experiment: Human HepG2 cell viability assay in 384 well format; type: toxicity, cell-based; set-up: dose 125 nL, time 70.5 hour; concentration not given beside the values; settings: HepG2 cells, read-out: Inhibition

Row | Structure (SMILES) | cytotoxicity at 70.5 h [%]
1 | CCNC(=O)NC[C@H]1C[C@@H]2CCN1C[C@@H]2c1cc(-c2cccs2)nn1C | -3.63
2 | Cn1nc(-c2ccccc2)cc1[C@H]1CN2CC[C@H]1C[C@@H]2CNS(C)(=O)=O | -6.73
3 | CC1CCN(C[C@H]2CN3CC[C@H]2C[C@@H]3CNC(=O)Nc2ccsc2)CC1 | 10.5
4 | CC1CCN(C[C@H]2CN3CC[C@H]2C[C@@H]3CNC(=O)c2ccco2)CC1 | 19.1
5 | O=S(=O)(NC[C@H]1C[C@@H]2CCN1C[C@@H]2CN1CCOCC1)c1ccccc1 | -0.151
6 | COc1ccccc1CN1CCC2(CCC(C(=O)N(C)C)O2)CC1 (centres undefined) | -8.03
7 | CN(C)C(=O)CN1CCC2(CCN(S(=O)(=O)C3CC3)CC2)C1=O | -11.2
8 | c1cc(CN2CCC3(CC2)COC(COCC2CC2)C3)cs1 (centres undefined) | -6.27
9 | Cc1cccc(CN2CCC3(CCC(C(=O)N(C)C)O3)CC2)n1 (centres undefined) | -9.32
10 | O=C1CC[C@]2(CC[C@@H](NC(=O)NCc3ccccc3)CC2)N1 | 15.6
11 | CC(=O)N1CCC2(CCCN(S(=O)(=O)c3ccccc3)C2)C1 (centres undefined) | 20
12 | Cc1cc(C(=O)N2CC[C@@H]3CN(CCC(C)C)S(=O)(=O)[C@@H]3CC2)no1 | -2.89
13 | C[C@H]1C[C@H]2CN(S(=O)(=O)c3ccc(F)cc3)CC[C@@H]2O1 | -3.04
14 | CCCS(=O)(=O)N1C[C@H]2C[C@H](C(=O)N3CCCC3)[C@@H](C1)O2 | -3.05
15 | CC(=O)N1CCC2(C1)CN(S(=O)(=O)c1ccccc1)C2 | -7.01
16 | O=C(Cc1ccc(F)cc1)N1C[C@H]2CCN[C@H]2C1 | -5
17 | C[C@H]1C[C@H]2CN(S(=O)(=O)c3ccc(F)cc3)CC[C@H]2O1 | 13.7
18 | N#Cc1ccc(C(=O)N2CCC3(CC2)CC3)cc1 | 4.59
19 | COCCN1C(=O)CCC12CCCN(C(=O)NC(C)C)CC2 (centres undefined) | 7.1
20 | Cn1cccc1C(=O)N1CCC2(CC1)CN(S(C)(=O)=O)c1ccccc12 | 3.63
21 | Cc1cc(C(=O)N2CC[C@@H](O)[C@@H]2Cc2ccccc2)no1 | -11.3
22 | CN1CCN(C(=O)c2n[nH]c3c2CN(C2CCOC2)CC3)CC1 (centres undefined) | -10.2
23 | Cc1cccc(N2CC3(CCN(S(=O)(=O)c4cccs4)C3)CC2=O)c1 (centres undefined) | -2.22
24 | CC[C@@H]1N(CC2CCC2)CCC[C@]12CCC(=O)N2Cc1ccncc1 | -4.74
25 | COc1ccc(C[C@H]2CN(C(=O)c3ncccn3)CC[C@@H]2OC)cc1 | -6.01
26 | O=C(C1CCOCC1)N1CCC2(CCNCC2)C1 | -11.8

Row | Structure (SMILES) | cytotoxicity at 70.5 h [%]
27 | O=C1N(Cc2cccc(F)c2)CCC12CCCNC2 (centres undefined) | -13.6
28 | O=C(C1CCOC1)N1CCC2(CC1)COC2 (centres undefined) | -7.79
29 | CC(C)NC(=O)[C@H]1C[C@@H]2[C@@H](C1)OCCN2Cc1ccncc1 | -7.54
30 | c1cc(C[C@H]2[C@H](N3CCOCC3)CCN2Cc2ccoc2)ccn1 | -11.4
31 | c1nc2c(c(C3CCOC3)n1)CCN(Cc1ccoc1)CC2 (centres undefined) | 7.95
32 | Cc1cnc(C(=O)N2CCC3(CC2)CC(c2ccccc2)C(=O)N3)cn1 (centres undefined) | 8.04
33 | CNC(=O)c1nc2c(s1)CCN(C(=O)c1ccccc1)CC2 | -9.7
34 | CN(C)CCOCC1CN(C(=O)c2cscn2)Cc2ccnn2C1 (centres undefined) | -8.28
35 | CS(=O)(=O)N[C@@H]1CN(Cc2ccccc2)C[C@@H]2CCCO[C@@H]21 | -4.64
36 | CC(C)CNC(=O)c1nc2c(s1)CCN(C(=O)c1ccc(Cl)cc1)CC2 | -3.22
37 | CCS(=O)(=O)N1CCC2(CC(=O)N(c3cncnc3)C2)C1 (centres undefined) | -3.21
38 | Cn1cccc1C(=O)NCc1cnc2n1CCN(C(N)=O)CC2 | -4.35
39 | Cc1noc(C)c1CN1CCOC2(CCCN(c3ccccn3)C2)C1 (centres undefined) | -8.65
40 | O=C([C@H]1C[C@H]2OCC[C@H]2N(C(=O)c2ccnnc2)C1)N1CCCCO1 | 1.65
41 | O=C([C@H]1C[C@H]2OCC[C@H]2N(C(=O)c2cnccn2)C1)N1CCCCO1 | -8.15
42 | Cn1cccc1C(=O)NCc1cnc2n1CCN(C(=O)c1ccoc1)C2 | -7.47
43 | Cc1occc1C(=O)N1C[C@@H](C(=O)N2CCCCO2)C[C@H]2OCC[C@H]21 | -7.27
44 | Cn1nnc2c1CCN(C(=O)CC1CC1)C2COCCN1CCCC1 (centres undefined) | 8.05
45 | CC(C)CN1CCC2(CCCNC2)C1=O (centres undefined) | -10.9
46 | O=C1CC2(CCNCC2)C(=O)N1c1cccc(F)c1 | -0.489
47 | COc1cccc(N2C(=O)CC3(CCCNC3)C2=O)c1 (centres undefined) | -5.35
48 | COc1cccc(N2C(=O)CC3(CCNCC3)C2=O)c1 | -4.17
49 | CC(=O)N1CCCCC12CCCN(Cc1ccco1)C2 (centres undefined) | -14.9
50 | CC(C)C(=O)N1CC[C@H]2N(C)CC[C@@]2(C(=O)N2CCOCC2)CC1 | 2.86
51 | O=C(N1CCCC1)N1CC[C@H]2[C@H]1CCN2c1ncccn1 | -3.91
52 | CN1C(=O)CC(c2ccccc2)C12CCN(CC1CC1)CC2 (centres undefined) | -11.2

Row | Structure (SMILES) | cytotoxicity at 70.5 h [%]
53 | CCCS(=O)(=O)N1C[C@H]2C[C@H](C(=O)N3CCN(C)CC3)[C@@H](C1)O2 | 4.46
54 | O=C1CC2(CCN(CC3CCOC3)CC2)c2ccccc2N1CC1CC1 (centres undefined) | -1.14
55 | O=C1Nc2ccccc2C12CCN(Cc1cccs1)CC2 | -2.74
56 | Cc1ccc(CN2CCC3(CC2)CCN(C(=O)c2cccn2C)C3)cc1 | -3.29
57 | CCN1C(=O)CC[C@]12CC[C@@H](NC(=O)c1ccncc1F)CC2 | -6.51
58 | O=C1CC[C@H]2[C@@H](CCN2Cc2ccco2)N1 | -8.59
59 | CO[C@H]1CCN(C(=O)Cc2ccsc2)[C@@H]2CN(CC3CC3)C[C@H]12 | -4.21
60 | CN1C(=O)CC(c2ccccc2)C12CCN(CCO)CC2 (centres undefined) | 2.6
61 | O=C(C1CC1)N1CCC2(CCCN2Cc2ccc(F)cc2)CC1 | 5.51
62 | CC(C)NC(=O)N1CCC2(CCC(=O)N2CCN(C)C)CC1 | -8.1
63 | O=C1[C@H]2CN(C(=O)[C@H]3CCCO3)C[C@H]2CN1CCN1CCCC1 | -9.56
64 | O=C1CC[C@]2(CC[C@@H](NCc3ccsc3)CC2)N1Cc1ccccc1 | -3.82
65 | CCN1CCC2(CCN(Cc3ccc(OC)cc3)CC2)C1=O | -3.84
66 | CNC(=O)CN1CCCC12CCN(C(=O)c1ccccc1F)CC2 | -10.4
67 | O=C1C[C@H]2[C@@H](CCN2C(=O)Cc2ccccc2)N1Cc1cccnc1 | -8.76
68 | CCOC1COC2(CCN(Cc3ccc(F)cc3)CC2)C1 (centres undefined) | -20.1
69 | CC(=O)N1C(CN2CCCC2)C[C@@H]2CN(C(=O)c3ccoc3)CC[C@@H]21 (some centres undefined) | -15.6
70 | CCOC1COC2(CCN(Cc3ccc(C)c(C)c3)CC2)C1 (centres undefined) | -11
71 | CCOC1COC2(CCN(Cc3ccc(C)cc3)CC2)C1 (centres undefined) | -11.9
72 | COCCC(=O)N1C[C@H]2CN(Cc3cccnc3)C(=O)[C@H]2C1 | 4.13
73 | Cn1cc(CN2CCC[C@]3(C(=O)O)CN(c4ncccn4)C[C@@H]3C2)cn1 | -12
74 | CCc1ncnc2c1CCN(Cc1cccs1)CC2 | -7.19
75 | c1csc(CN2CCc3ncnc(C4CCOC4)c3CC2)n1 (centres undefined) | -4.88
76 | CO[C@H]1CCN(c2nnc(C)s2)C[C@@H]1Cc1ccccc1 | -4.37
77 | O=C(N1CCCC1)N1CCC[C@]2(C[C@@H](OCc3ccncc3)CO2)C1 | -10.6
78 | COc1ccc(C[C@H]2CN(c3nnc(C)s3)CC[C@H]2OC)cc1 | -10.2

Row | Structure (SMILES) | cytotoxicity at 70.5 h [%]
79 | O=C([C@H]1CN(Cc2ccc(F)cc2)C[C@H]2OCC[C@@H]12)N1CCCO1 | -7.77
80 | CNC(=O)[C@H]1C[C@H]2OCC[C@H]2N(CC2CCOCC2)C1 | -8.61
81 | CO[C@H]1CCN(c2nnc(C)s2)C[C@@H]1Cc1cccc(C)c1 | 7.81
82 | O=C(N[C@@H]1CN(c2ncccn2)C[C@@H]2CCCO[C@@H]21)c1ccnnc1 | -6.03
83 | O=C(NCc1cn2c(n1)CN(Cc1nccs1)CC2)C1CCC1 | -6.31
84 | N#Cc1cccc(CN2C[C@H](OCC3CCOCC3)[C@H]3COC[C@H]32)c1 | -5.67
85 | O=C([C@H]1C[C@H]2OCC[C@H]2N(C(=O)c2ccccn2)C1)N1CCCCO1 | -6.44
86 | COCC(=O)N1CCc2c(nnn2C)C1COCCN1CCCC1 (centres undefined) | -2.45
87 | CC(C)N(C)Cc1ncn2c1CN(S(=O)(=O)c1cccs1)CCC2 | 13
88 | Cc1cccnc1N1CC2(CCN(Cc3cnn(C)c3)C2)C1 | -10.7
89 | CN(C)C[C@H]1C[C@@H]2CN(Cc3ccoc3)C[C@@H]2O1 | -12.5
90 | COCCN1CCC2(CC1)CC(NC(=O)CN(C)C)c1ccccc1O2 (centres undefined) | -6.88
91 | O=C(c1n[nH]c2c1CN(C1CCOC1)CC2)N1CCCC1 (centres undefined) | -1.72
92 | CC[C@@H]1N(C)CCC[C@]12CCC(=O)N2Cc1ccncc1 | 0.423
93 | COCC1CN(Cc2cc(C)on2)Cc2cn(CC3CCCC3)nc21 (centres undefined) | -8.99
94 | c1cc(CN2CCc3ncnc(C4CCOC4)c3CC2)ccn1 (centres undefined) | -6.5
95 | O=C(NCc1cn2c(n1)CN(Cc1ccncc1)CC2)C1CCC1 | 8.23
96 | O=C(NCc1cn2c(n1)CN(Cc1cccnc1)CC2)C1CCC1 | 7.24
97 | c1cc(CN2CCCC3(COCCN(Cc4c[nH]nn4)C3)C2)cs1 (centres undefined) | -2.64
98 | O=C(NCc1cn2c(n1)CN(Cc1ccccn1)CC2)C1CCC1 | -10
99 | O=C(N[C@@H]1CN(c2ncccn2)C[C@@H]2CCCO[C@@H]21)c1ccncc1 | -3.78
100 | Fc1ccc(CN2CCCC3(COCCN(Cc4c[nH]nn4)C3)C2)cc1 (centres undefined) | -5.93
101 | CS(=O)(=O)N[C@@H]1CN(Cc2ccncc2)C[C@@H]2CCCO[C@@H]21 | -9.37
102 | CN(C)CCN1CCOCC2(CCCN(C(=O)Cc3ccccc3)C2)C1 (centres undefined) | 10.9
103 | Cn1ccnc1CN1CCN2C[C@H](Oc3ccccc3)C[C@H]2C1 | 11.2
104 | CN1CCN(C(=O)c2n[nH]c3c2CN(C2CCOCC2)CC3)CC1 | -10.2
